The target of this assay is T1, human GPR84 receptor (Homo sapiens, UniProt Q9NQS5).
T1 construct: host or cells: HEK293, transient transfection
The experiment in a line: Gαi biosensor BRET assay in HEK293 cells (antagonism of ZQ-16). The format is cell-based. To be noted: for inhibition at 10 µM: HEK293, single concentration 10 μM (designated F); for pIC50: HEK293 cells, antagonism of 200 nmol/L ZQ-16; for inhibition at 2 µM: HEK293, single concentration 2 μM (designated A); for inhibition at 25 µM: HEK293, single concentration 25 μM (designated I). A digest of the protocol:
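HEK293 cells transiently expressing human GPR84, Gαi2-Rluc8, GFP10-Gγ2 and Gβ1, in Tyrode's buffer pH 7.5. Compounds preincubated 5 min at 37° C, then 200 nmol/L ZQ-16 for 5 min at room temperature; coelenterazine 400A 5 μmol/L. BRET2 acceptor/donor ratio, background- and vehicle-corrected net BRET.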
(In BRET a luciferase serves as donor, and the signal depends on an acceptor being close.)

Broadly, the inhibition is the relative decrease from the control value, in per cent. A higher inhibition goes with a response far below the control. The pIC50 is the IC50 on a negative log10 scale, so that one unit is a factor of ten.

SMILES strings stand for the structures. pIC50: −log10 of the molar value.

T1 sequence (Q9NQS5 whole entry): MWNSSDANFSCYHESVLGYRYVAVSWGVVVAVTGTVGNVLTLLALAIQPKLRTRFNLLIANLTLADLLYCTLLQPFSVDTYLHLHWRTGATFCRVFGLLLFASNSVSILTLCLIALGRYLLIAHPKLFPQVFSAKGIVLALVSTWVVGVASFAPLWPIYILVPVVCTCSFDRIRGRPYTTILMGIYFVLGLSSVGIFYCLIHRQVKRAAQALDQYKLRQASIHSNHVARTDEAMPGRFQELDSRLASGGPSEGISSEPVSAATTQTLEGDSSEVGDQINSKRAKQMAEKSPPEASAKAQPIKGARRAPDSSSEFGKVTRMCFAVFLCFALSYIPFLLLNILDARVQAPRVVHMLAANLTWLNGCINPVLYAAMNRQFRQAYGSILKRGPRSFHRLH

The compound `COC(c1cn(CC2OCC(F)(F)CO2)nn1)c1cc(C#CC2CC2)ccc1C` (stereo not shown) [Compound I-725] showed an inhibition at 10 µM above 75% and a negative-log IC50 (pIC50) of 6.00 to 6.52. Take `Cc1cc(N2CCC3(CC2)CN(Cc2ccccn2)C3)ccc1-c1cn(CC2CCCCO2)nn1` (stereo not shown) [Compound I-521]: the inhibition at 10 µM is at most 25%. `CCc1cc(C#CC2CC2)ccc1-c1cn(CC2CCCCO2)nn1` (stereo not shown) [Compound I-865]: the inhibition at 10 µM was at most 25% and the negative-log IC50 (pIC50) is 6.00 to 6.52. Take `Cc1cc(N2CC3(CCCN3Cc3ccccn3)C2)ccc1-c1cn(CC2CCCCO2)nn1` (stereo not shown) [Compound I-590]: the inhibition at 10 µM was at most 25%. `Cc1ccc(-c2ccc(C3COC(=O)N3CC3CCCCO3)c(C)c2)cn1` (stereo not shown) [Compound I-407, 4-(2-methyl-4-(6-methylpyridin-3-yl)phenyl)-3-((tetrahydro-2H-pyran-2-yl)methyl)oxazolidin-2-one] gave an inhibition at 10 µM of at most 25%. As to `Cc1ccc(C#CC2CC2)cc1[S+]([O-])c1cn(CC2OCC(C)(C)CO2)nn1` (racemic) [Compound I-782, (RS)-4-((5-(cyclopropylethynyl)-2-methylphenyl)sulfinyl)-1-((5,5-dimethyl-1,3-dioxan-2-yl)methyl)-1H-1,2,3-triazole], the inhibition at 10 µM is above 75%.

For `Cc1ccc(C#CC2CC2)cc1Cc1cn(CC2OCC(C)(C)CO2)nn1` [Compound I-669, 4-(5-(cyclopropylethynyl)-2-methylbenzyl)-1-((5,5-dimethyl-1,3-dioxan-2-yl)methyl)-1H-1,2,3-triazole], the inhibition at 2 µM was above 75% and the pIC50 was at least 6.52. Consider `CCc1c(C#CC2CC2)cccc1Cc1cn(CC2CCCCO2)nn1` (stereo not shown) [Compound I-476], for which the inhibition at 2 µM was at most 25%. As for `CCc1cc(C#CCN(C)C2CC2)ccc1-c1cn(CC2OCC(C)(C)CO2)nn1` [Compound I-857], the inhibition at 10 µM is at most 25%. For the compound `COC(C)Cn1cc(-c2ccc(C#CC3CC3)cc2C)nn1` (stereo not shown) [Compound I-132], the inhibition at 10 µM lay within 25 to 50%. The compound `CCc1cc(N2CC(C)(CO)C2)cnc1-c1cn(CC2CC(C)(C)CO2)nn1` (stereo not shown) [Compound I-500] showed an inhibition at 10 µM above 75% and a pIC50 of 5.52 to 6.00. The compound `C(#CC1CC1)c1ccc(-c2ccn(CC3CCCCO3)n2)cc1` (stereo not shown) [Compound I-321] came in with an inhibition at 25 µM of 25 to 50%.

Consider `CCOc1cc(C#CCOC)cnc1-c1cn(CC2OCC(C)(C)CO2)nn1` [Compound I-834], for which the inhibition at 10 µM was at most 25% and the pIC50 is at least 6.52.

For the compound `CC1(C)COC(Cn2cc(-c3ncc(C#CCN4CC(C)(C)C4)cc3Cl)nn2)OC1` [Compound I-777], the pIC50 was 5.52 to 6.00. `CC1(CO)CN(c2ccc(-c3cn(CC4OCC5(CCC5)O4)nn3)c(CC(F)(F)F)c2)C1` (stereo not shown) [Compound I-796] gave a pIC50 of at least 6.52. Compound `CC1(C)COC(Cn2cc(Oc3ccccc3)nn2)OC1` [Compound I-743, 1-((5,5-dimethyl-1,3-dioxan-2-yl)methyl)-4-phenoxy-1H-1,2,3-triazole] had an inhibition at 10 µM of at most 25%.

Turning to `Cc1cc(C#CC2CC2)ccc1-c1cn(C[C@H]2COC(C)(C)O2)nn1` [Compound I-222], the inhibition at 10 µM lay within 50 to 75%. On to `CC(C)Oc1cc(C#CC2CC2)cnc1-c1cn(Cc2ncccn2)nn1` [Compound I-502], for which the inhibition at 10 µM is above 75% and the pIC50 was 5.52 to 6.00. `Cc1cc(N2CCC(O)C2)ccc1-c1cn(CC2CCCCO2)nn1` (stereo not shown) [Compound I-436] registered an inhibition at 10 µM of at most 25%. `Cc1cc(N2CC3(CCNCC3)C2)ccc1-c1cn(CC2CCCCO2)nn1` (stereo not shown) [Compound I-154] had an inhibition at 10 µM of 25 to 50%. `Cc1cc(C#CC2CC2)ccc1-c1cn(CC23CC4CC(CC(C4)O2)C3)nn1` [Compound I-523] showed an inhibition at 2 µM of at most 25%.

The compound `C(#CC1CC1)c1ccc(-c2cn(CC3OCC4(CCC4)O3)nn2)c(OC2CC2)c1` (stereo not shown) [Compound I-798] displayed an inhibition at 10 µM above 75%. `Cc1cc(N2CCN(Cc3ccccn3)CC2)ccc1-c1cn(CC2OCCCO2)nn1` [Compound I-532]: the inhibition at 10 µM fell in the range of 25 to 50%. `Cc1cc(C#CC2CC2)ccc1-c1cn(CC23CC(CO2)C3)nn1` [Compound I-525] displayed an inhibition at 10 µM of at most 25%. The compound `Cc1cc(N2CC3(CCN(C(=O)c4ccccc4)CC3)C2)ccc1-c1cn(CC2CCCCO2)nn1` (stereo not shown) [Compound I-310] showed an inhibition at 10 µM of 50 to 75% and a pIC50 of 5.52 to 6.00. `CC1(C)COC(Cn2cc(-c3ncc(C#CCN4CC(C)(C)C4)cc3OCC(F)(F)F)nn2)OC1` [Compound I-722] had an inhibition at 2 µM above 75% and a negative logarithm of the IC50 (pIC50) of at least 6.52.

Turning to `CC(C)Oc1cc(C#CCNc2ccccn2)cnc1-c1cn(CC2CC(C)(C)CO2)nn1` (stereo not shown) [Compound I-606], the inhibition at 10 µM is 50 to 75%. Turning to `Cc1cc(N2CC3(CN(Cc4ccccn4)C3)C2)ccc1-c1cn(CC2CCCCO2)nn1` (stereo not shown) [Compound I-429], the inhibition at 10 µM lay within 25 to 50%. As to `CN(C)c1cc(N2CC(C)(CO)C2)ccc1-c1cn(CC2CC3(CC3)CO2)nn1` (stereo not shown) [Compound I-707], the inhibition at 10 µM is above 75% and the pIC50 was at least 6.52.

For `COc1ccc(C)c(N(C)c2cn(CC3OCC(C)(C)CO3)nn2)c1` [Compound I-814], the inhibition at 10 µM was at most 25%.

With `FC(F)(F)Cc1cc(N2CCN(Cc3ccccn3)CC2)ccc1-c1cn(C[C@H]2CCCCO2)nn1` [Compound I-746], the inhibition at 2 µM is above 75% and the negative-log IC50 (pIC50) was at least 6.52.

In the case of `CC(=O)N1CCOCC1Cn1cc(-c2ccc(C#CC3CC3)cc2C)nn1` (stereo not shown) [Compound I-99], the inhibition at 10 µM is at most 25%. On to `Cc1cccc(-c2cn(CC#Cc3cnc(-c4cn(CC5CCCCO5)nn4)c(C)c3)nn2)c1` (stereo not shown) [Compound I-718], for which the inhibition at 2 µM was above 75% and the negative logarithm of the IC50 (pIC50) is 6.00 to 6.52. For the compound `Clc1ccc(C#CC2CC2)cc1-c1cn(CC2CCCCO2)nn1` (stereo not shown) [Compound I-134], the inhibition at 10 µM was at most 25%. Take `Cc1cc(N2CCN(C)CC2)ccc1-c1cn(C[C@H]2CCCCO2)nn1` [Compound I-111]: the inhibition at 10 µM was at most 25%. As for `Cc1cc(N2CCN(Cc3ccccn3)CC2)ccc1-c1cn(C[C@H]2CCCCO2)cn1` [Compound I-671], the inhibition at 10 µM was above 75% and the negative-log IC50 (pIC50) was 5.52 to 6.00. As to `Cc1cc(C#CC2CC2)ccc1-c1cn(CC2COCCN2C)nn1` (stereo not shown) [Compound I-527], the inhibition at 10 µM was at most 25%. `Cc1cc(N2CC(C)(CO)C2)ccc1-c1cn(CC2OCC(C)(C)O2)nn1` (stereo not shown) [Compound I-626] came in with an inhibition at 10 µM of 25 to 50%. `CN(C)c1cc(N2CC(C)(CO)C2)c(F)cc1-c1cn(CC2CC(C)(C)CO2)nn1` (stereo not shown) [Compound I-710] gave an inhibition at 2 µM above 75% and a negative-log IC50 (pIC50) of at least 6.52. For the compound `Cc1cc(C#CC2CC2)ccc1-c1cn(CC2CCCCS2)nn1` (stereo not shown) [Compound I-258], the inhibition at 10 µM was 50 to 75%. With `C(#CC1CC1)c1ccc(-c2cn(CC3CCCCO3)nn2)s1` (stereo not shown) [Compound I-38], the inhibition at 25 µM was 50 to 75%. Consider `Cc1cc(N2CC3(CCN(Cc4ccccc4)CC3)C2)ccc1-c1cn(CC2CCCCO2)nn1` (stereo not shown) [Compound I-156], for which the inhibition at 10 µM was 50 to 75%.

`Cc1cc(N2CC3(CN(Cc4ccccc4)C3)C2)ccc1-c1cn(CC2CCCCO2)nn1` (stereo not shown) [Compound I-146] returned an inhibition at 10 µM of 25 to 50%.

For `Cc1ccccc1-c1cn(CC#Cc2ccc(-c3cn(CC4CCCCO4)nn3)c(C)c2)nn1` (stereo not shown) [Compound I-488], the inhibition at 10 µM was 50 to 75% and the negative logarithm of the IC50 (pIC50) is at least 6.52.

(Values after patent US12617777B2, “GPR84 antagonists and uses thereof” (Liminal BioSciences Limited, priority 2021, dated 2026).)
